From patent publication US20250145592A1 (NICO Therapeutics, Inc., priority 2022, published 2025)
Read-outs that look alike come from different tables or passages of the source.

System: IL-1β secretion in THP-1 cells (NLRP3)
Assay: IL-1β secretion assay in PMA-differentiated THP-1 cells stimulated with LPS and nigericin (ELISA readout)
Assay type: cell-based
Details: IL-1β ELISA
Description: Compounds as provided herein were tested in the following assay. Cell culture medium employed contained RPMI 1640 medium (89%), FBS (10%), Pen/Strep (1%), and 2-mercaptoethanol (0.05 mM). Freezing medium was made up of 90% FBS and 10% DMSO. THP-1 cells were removed from the liquid nitrogen and placed into a 37° C. water bath to thaw, until signs of ice dissipated. The cells were then added to 9 mL of warm cell culture medium and centrifuged for 5 minutes at 1000 rpm. The supernatant was discarded, and the cells were resuspended in new cell culture medium. THP-1 cells were then split and cultured in the cell culture medium, being passaged every 2-3 days with the cell density will be maintained between 5×10^5 and 1.5×10^6 viable cells/mL.
To freeze, cells were resuspended with fresh freezing medium, adjusting the cell density to 5×10^6 cells/mL. The cell suspension was partitioned into 1 mL aliquots per vial, and the vials were transferred to a −80° C. freezer. After one day at −80° C., the cell vials were transferred to liquid nitrogen freezer for storage.
PMA was dissolved in DMSO to make a stock solution at 5 mg/ml and stored in 10 μl aliquots at −20° C. for single use. PMA is added to normal growth medium. LPS was diluted with 1 mL of water solution to provide a 1 mg/mL stock solution and stored in 15 μl aliquots at −20° C. for single use. Nigericin is diluted in ice cold 100% ethanol to 5 mg/ml (6.7 mM) and stored in 75 μL aliquots at −20° C. for single use. Serum-free media contains RPMI 1640 medium (99%), Pen/Strep (1%), and 2-mercaptoethanol (0.05 mM). The two control conditions used to qualify and normalize test compound dose-response curves were as follows: High Control=25 ng/mL LPS, […], 0.5% DMSO, Low Control=25 ng/mL, LPS, 0.5% DMSO.
THP-1 cells were diluted to provide a suspension at a concentration of 1.0×10^6 cells/mL with the total volume of suspension required to enable the desired number of assay plates. The growth media was supplemented with PMA (5 ng/mL final concentration) and the cells were incubated at 37° C. under a humidified atmosphere of 5% CO2 for 40 h.
All media was carefully aspirated from each culture flask. The cells were washed carefully with 1×DPBS. The cells were then briefly digested with trypsin LE for 5 minutes at 23° C. and immediately resuspended in cell growth media. After resuspension, the cells were centrifuged at 1000 rpm for 3 minutes and the supernatant was discarded. The cells were resuspended in DPBS and once again centrifuged at 1000 rpm for 5 minutes. The supernatant was discarded and the cell pellet was resuspended in serum-free media supplemented with LPS (25 ng/mL final concentration) to enable the distribution of 30K THP-1 cells within 45 μL of media into each well of 384-well PDL-coated plates. The 384-well plates were then incubated at 37° C. under a humidified atmosphere of 5% CO2 for 2 h. Following this period, test compounds were dispensed by Tecan across the desired concentration range with all wells normalized to a final 0.5% DMSO concentration. The plates were then then incubated at 37° C. under a humidified atmosphere of 5% CO2 for 1 h. Following this period, 5 μL of the 5 mg/mL nigericin stock solution was added to each of the appropriate wells and plates were centrifuged at 1000 rpm for 30 seconds. The plates were the immediately reintroduced to the incubator at 37° C. under a humidified atmosphere of 5% CO2 for 2 h. After this time, 35 μL/well of supernatant was collected and transferred into v-bottom plate and centrifuged at 1000 rpm for 1 minute. These supernatant aliquots were analyzed using an IL-Iβ detection kit as described below. If needed, the test samples could be snap frozen and stored at −80° C. until analyzed.
To prepare each ELISA plate, capture antibody (mAb Mt175) was diluted with PBS to a final concentration of […] and then 20 µL of this solution was added to each well of the ELISA plate.
Each plate was allowed to incubate overnight at 4° C. […]

[1] = Homo sapiens, THP-1, Table 3, LPS 25 ng/mL + nigericin, read-out: Activity (IC50 class)
[2] = Homo sapiens, THP-1, Table 4, LPS 25 ng/mL + nigericin, read-out: Activity (IC50)

SMILES | IC50 (Table 3, LPS 25 ng/mL + nigericin, read-out: Activity (IC50 class)) [nM] | IC50 (Table 4, LPS 25 ng/mL + nigericin, read-out: Activity (IC50)) [nM] | IC50 [1] [nM] | IC50 [2] [nM]
O=C(Cn1nc(OC2CC3(C2)CC(F)(F)C3)c2cc(Br)ccc2c1=O)Nc1ncc(F)cn1 [Example 1, 2-[6-bromo-4-(2,2-difluorospiro[3.3]heptan-6-yl)oxy-1-oxophthalazin-2-yl]-N-(5-fluoropyrimidin-2-yl)acetamide] |  |  | < 1000 | 10
O=C(Cn1nc(OC2CC3(CC3)C2)c2cc(Br)ccc2c1=O)Nc1ncc(F)cn1 [Example 4, 2-(6-bromo-1-oxo-4-spiro[2.3]hexan-5-yloxyphthalazin-2-yl)-N-(5-fluoropyrimidin-2-yl)acetamide] |  |  | < 1000 | 33
COc1nn(CC(=O)Nc2ncc(F)cn2)c(=O)c2ccc(C3(F)CC3)cc12 [Example 11, 2-[6-(1-fluorocyclopropyl)-4-methoxy-1-oxophthalazin-2-yl]-N-(5-fluoropyrimidin-2-yl)acetamide] |  |  | < 1000 | 136
O=C(Cn1nc(OC2CC2)c2cc(C3(F)CC3)ccc2c1=O)Nc1ncc(F)cn1 [Example 12, 2-[4-cyclopropyloxy-6-(1-fluorocyclopropyl)-1-oxophthalazin-2-yl]-N-(5-fluoropyrimidin-2-yl)acetamide] |  |  | < 1000 | 152
O=C(Cn1nc(OC2CC3(C2)CC(F)(F)C3)c2cc(C3(F)CC3)ccc2c1=O)Nc1ncc(F)cn1 [Example 15, 2-[4-(2,2-difluorospiro[3.3]heptan-6-yl)oxy-6-(1-fluorocyclopropyl)-1-oxophthalazin-2-yl]-N-(5-fluoropyrimidin-2-yl)acetamide] |  |  | < 1000 | 19
C[C@]1(O)C[C@@H](NC(=O)Cn2nc(OC3CC4(C3)CC(F)(F)C4)c3cc(Br)ccc3c2=O)C1 [Example 16, 2-[6-bromo-4-(2,2-difluorospiro[3.3]heptan-6-yl)oxy-1-oxophthalazin-2-yl]-N-(cis-3-hydroxy-3-methylcyclobutyl)acetamide] |  |  | < 1000 | 137
C[C@]1(O)C[C@@H](NC(=O)Cn2nc(OC3CC3)c3cc(Br)ccc3c2=O)C1 [Example 23, 2-(6-bromo-4-cyclopropyloxy-1-oxophthalazin-2-yl)-N-(cis-3-hydroxy-3-methylcyclobutyl)acetamide] |  |  | < 1000 | 312
COc1nn(CC(=O)N[C@H]2C[C@@](C)(O)C2)c(=O)c2ccc(Br)cc12 [Example 24, 2-(6-bromo-4-methoxy-1-oxophthalazin-2-yl)-N-(cis-3-hydroxy-3-methylcyclobutyl)acetamide] |  |  | < 1000 | 183
O=C(Cn1nc(OC2CC2)c2cc(Br)ccc2c1=O)Nc1nc2ccccn2n1 [Example 27, 2-(6-bromo-4-cyclopropyloxy-1-oxophthalazin-2-yl)-N-([1,2,4]triazolo[1,5-a]pyridin-2-yl)acetamide] |  |  | < 1000 | 235
O=C(Cn1nc(OC2CC2)c2cc(I)ccc2c1=O)Nc1ncc(F)cn1 [Example 28, 2-(4-cyclopropyloxy-6-iodo-1-oxophthalazin-2-yl)-N-(5-fluoropyrimidin-2-yl)acetamide] |  |  | < 1000 | 21
Cc1cnc(NC(=O)Cn2nc(OC3CC4(CC4)C3)c3cc(Br)ccc3c2=O)nc1 [Example 29, 2-(6-bromo-1-oxo-4-spiro[2.3]hexan-5-yloxyphthalazin-2-yl)-N-(5-methylpyrimidin-2-yl)acetamide] |  |  | < 1000 | 26

Continued, values first:

IC50 (Table 3, LPS 25 ng/mL + nigericin, read-out: Activity (IC50 class)) [nM] | IC50 (Table 4, LPS 25 ng/mL + nigericin, read-out: Activity (IC50)) [nM] | IC50 [1] [nM] | IC50 [2] [nM] | SMILES
< 1000 | 397 |  |  | CC[C@@H]1CC1Oc1nn(CC(=O)Nc2ncc(F)cn2)c(=O)c2ccc(Br)cc12 (single isomer, unassigned) [Example 36, 2-[6-bromo-4-[cis-2-ethylcyclopropyl]oxy-1-oxophthalazin-2-yl]-N-(5-fluoropyrimidin-2-yl)acetamide]
 |  | < 1000 | 924 | C[C@@H]1CC1Oc1nn(CC(=O)Nc2ncc(F)cn2)c(=O)c2ccc(Br)cc12 (stereo in doubt) [Example 52, 2-[6-bromo-4-[cis-2-methylcyclopropyl]oxy-1-oxophthalazin-2-yl]-N-(5-fluoropyrimidin-2-yl)acetamide]
 |  | < 1000 | 50 | N#Cc1cnc(NC(=O)Cn2nc(OC3CC4(CC4)C3)c3cc(Br)ccc3c2=O)nc1 [Example 30, 2-(6-bromo-1-oxo-4-spiro[2.3]hexan-5-yloxyphthalazin-2-yl)-N-(5-cyanopyrimidin-2-yl)acetamide]
 |  | < 1000 | 66 | O=C(Cn1nc(OC2CC3(CC3)C2)c2c(F)c(C3CC3)ccc2c1=O)Nc1ncc(F)cn1 [Example 31, 2-(6-cyclopropyl-5-fluoro-1-oxo-4-spiro[2.3]hexan-5-yloxyphthalazin-2-yl)-N-(5-fluoropyrimidin-2-yl)acetamide]
 |  | < 1000 | 183 | COc1nn(CC(=O)Nc2ncc(F)cn2)c(=O)c2ccc(C3CC3)c(F)c12 [Example 32, 2-(6-cyclopropyl-5-fluoro-4-methoxy-1-oxophthalazin-2-yl)-N-(5-fluoropyrimidin-2-yl)acetamide]
 |  | < 1000 | 625 | COc1nn(CC(=O)Nc2ncc(F)cn2)c(=O)c2ccc(C3CC3)c(OC)c12 [Example 33, 2-(6-cyclopropyl-4,5-dimethoxy-1-oxophthalazin-2-yl)-N-(5-fluoropyrimidin-2-yl)acetamide]
 |  | < 1000 | 408 | O=C(Cn1nc(OC2CC2)c2cc(Cl)ccc2c1=O)Nc1ncc(F)cn1 [Example 34, 2-(6-chloro-4-cyclopropyloxy-1-oxophthalazin-2-yl)-N-(5-fluoropyrimidin-2-yl)acetamide]
 |  | < 1000 | 424 | O=C(Cn1nc(OC2CC2)c2cc(OC(F)F)ccc2c1=O)Nc1ncc(F)cn1 [Example 37, 2-[4-cyclopropyloxy-6-(difluoromethoxy)-1-oxophthalazin-2-yl]-N-(5-fluoropyrimidin-2-yl)acetamide]
 |  | < 1000 | 444 | Cc1cnc(NC(=O)Cn2nc(OC3CC3)c3cc(Br)ccc3c2=O)nn1 [Example 38, 2-(6-bromo-4-cyclopropyloxy-1-oxophthalazin-2-yl)-N-(6-methyl-1,2,4-triazin-3-yl)acetamide]
 |  | 1000 to 10000 | 1120 | O=C(Cn1nc(OC2CC2)c2cc(C3CCC3)ccc2c1=O)Nc1ncc(F)cn1 [Example 39, 2-(6-cyclobutyl-4-cyclopropyloxy-1-oxophthalazin-2-yl)-N-(5-fluoropyrimidin-2-yl)acetamide]
 |  | < 1000 | 17 | O=C(Cn1nc(OC2CC3(CCC3)C2)c2cc(Br)ccc2c1=O)Nc1ncc(F)cn1 [Example 40, 2-(6-bromo-1-oxo-4-spiro[3.3]heptan-2-yloxyphthalazin-2-yl)-N-(5-fluoropyrimidin-2-yl)acetamide]
 |  | < 1000 | 52 | O=C(Cn1nc(OC2CC3(CC3)C2)c2cc(Br)ccc2c1=O)Nc1ncc(Cl)cn1 [Example 41, 2-(6-bromo-1-oxo-4-spiro[2.3]hexan-5-yloxyphthalazin-2-yl)-N-(5-chloropyrimidin-2-yl)acetamide]
 |  | < 1000 | 360 | O=C(Cn1nc(OC2CC(C(F)(F)F)C2)c2cc(Br)ccc2c1=O)Nc1ncc(F)cn1 (stereo not drawn) [Example 42, 2-[6-bromo-1-oxo-4-[3-(trifluoromethyl)cyclobutyl]oxyphthalazin-2-yl]-N-(5-fluoropyrimidin-2-yl)acetamide]
